# Reference: patent US20120220594A1, “METHODS FOR TREATING CANCER IN PATIENTS HAVING IGF-1R INHIBITOR RESISTANCE” (Bristol-Meyers Squibb Company, priority 2009, published 2012)
# System: Rh41-807R cells
# Conditions: 1:1 ratio, Combination Index less than 1 indicates synergy
# From the text: A dilution of ratios drug combination method was used in cellular proliferation assays to test the IC50 values of single agent (A or B) as well as in combination (a or b). […] Combination Index=(a/A+b/B).
structure (smiles),measurement,value
Cc1ccc(NC(=O)c2ccc(CN3CCN(C)CC3)cc2)cc1Nc1nccc(-c2cccnc2)n1 [imatinib],activity in growth inhibition in combination with BMS-754807,synergistic activity
